Assay results from US20250213499A1, “COMPOSITION FOR PREVENTING OR TREATING ISCHEMIC STROKE, CONTAINING SOBREROL AS ACTIVE INGREDIENT” (NEUROLMED CO., LTD, priority 2020, published 2025).

Test system: focal cerebral ischemia induced by middle cerebral artery occlusion and reperfusion (MCAO/R)
Test: Rodent cerebral ischemia model (MCAO/R): volume of cerebral infarction area by TTC staining
Format: in vivo, mice (C57/BL6)
Details: for cerebral infarction volume due to focal cerebral ischemia (FIG. 3): TTC-stained brain slices, ImageJ, *** p<0.001
Method: 12- to 13-week-old male mice (C57/BL6) were used in the experiment. The mice were divided into four groups of five each (three in the Sham group): Sham (surgical control group), stroke surgery group (Stroke), stroke+sobrerol-L (administration of 10 mg/kg of SOB-L), and stroke+sobrerol-H (administration of 40 mg/kg of SOB-H). According to the schematic view shown in FIG. 1, middle cerebral artery occlusion and reperfusion operation (MCAO/R) was performed to induce focal cerebral ischemia. After MCAO/R surgery, sobrerol was orally administered at concentrations of 10 mg/kg and 40 mg/kg. In the Sham and Stroke control groups, saline was orally administered. Neurological deficit tests were performed 22-23 hours after MCAO/R (n=5). After re-anesthesia, cardiac reperfusion in mice was carried out with PBS solution, and the brains were immediately removed and stained with 2% TTC (2,3,5-triphenyl-tetrazolium chloride) solution. TTC-stained slices were obtained from the mice in four groups, particularly Sham (surgical control group), stroke surgery group (Stroke), stroke+sobrerol-L (administration of 10 mg/kg of SOB-L), and stroke+sobrerol-H (administration of 40 mg/kg of SOB-H), and the volume of the cerebral infarction area was measured. Quantification was measured using ImageJ.

## CC1=CCC(C(C)(C)O)CC1O (centres unmarked) [sobrerol, 5-(2-hydroxypropan-2-yl)-2-methylcyclohex-2-en-1-ol]
10 mg/kg oral after MCAO/R (sobrerol-L)
  cerebral infarction volume due to focal cerebral ischemia (FIG. 3): significantly reduced
40 mg/kg oral (stroke+sobrerol-H) compared to sobrerol-L, Stroke and Sham groups, red area = undamaged, white = infarction
  damage status of ischemic brain tissue in TTC-stained slices (FIG. 2): undamaged
40 mg/kg oral after MCAO/R (sobrerol-H)
  cerebral infarction volume due to focal cerebral ischemia (FIG. 3): significantly reduced
Group orally administered sobrerol compared to the other groups, dose not given
  damage status of ischemic brain tissue in TTC-stained slices (FIG. 2): red undamaged area without cerebral infarction area
Stroke animal model, compared to the group not administered a stroke drug, dose not stated
  infarction size: decrease
